Measured values from patent EP2271935B1, “METHOD AND KIT FOR THE EX VIVO EVALUATION OF THE RESPONSE OF A TUMOR TO CONDITIONS TO BE TESTED” (Universität Leipzig, priority 2008, dated 2009).
pIC50: −log10 of the molar value. Like-named read-outs stand apart in the source and are kept apart here.

Test system: epithelial cell line KB (DSMZ ACC 136)
Experiment: MTT assay of proliferation under varied riboflavin content and light exposure
Assay type: cell-based, human
Excerpt: To address this question, three media, a) the RPMI 1640 without riboflavin and phenol red that is used in the method according to the invention and was manufactured according to our specifications by Biochrom, as well as two different RPMI 1640 charges purchased from Invitrogen which were each containing 532 nmol/L riboflavin, b) a phenol red-free (Gibco 11835), and c) a conventional RPMI 1640 (Gibco 21875) with 13.284 µmol/L phenol red. All media were supplemented with 2 mmol/L L-alanyl-1-glutamine as stabilized glutamine source (Biochrom K0302 Lot 0755 S) and the same amount of 10% (v/v) of heat-inactivated fetal calf serum (FCS) that was purchased from Invitrogen (Lot 41Q7554K) with a yield of 198 nmol/L riboflavin. […] These medium concentrations define the riboflavin concentrations in controls (see below).
In addition to the influences exerted by the different types of media alone, the riboflavin-dependent impact on the outcome of the docetaxel treatment was investigated. For this purpose 100 µl/well of docetaxel dilutions containing threefold the concentration indicated were added into the wells of microwell plates. The following seven docetaxel concentrations were tested: 19.38, 38.75, 77.5, 155, 310, 620, and 1,240 pmol/L.
To examine photoactivation-dependent riboflavin-mediated effects disturbing the outcome of ex-vivo chemoresponse-evaluation by conventional cell culture medium, and in particular in the absence of flavin-protecting experimental conditions, varying amounts of riboflavin were added. A stock solution of 200 µM (-)-riboflavin (CAS 83-68-5, Sigma R9504, FW=376.37 g/mol, purity >99%, cell culture tested) in phosphate buffered saline was diluted to adjust in each case the highest final concentration in culture (this means: after completion of the assay by addition of the other two components to the final assay volume of 300 µL) to exactly 10 µmol/L. Serial log10-dilutions were made from this concentration in each corresponding medium. These gave final concentrations in cell culture of 10.000, 1.018, 0.12, and 0.03 µmol/L in the case of medium a) (the medium according to the method of the invention), and concentrations of 10.000, 1.449, 0.594, and 0.508 µmol/L using media b) and c).
In general, each combination of riboflavin and docetaxel were tested in duplicate, and controls without additional riboflavin in quadruplicate for each experimental setting in the same 96-well plate. The experimental conditions were as follows: For each of the used media, two different plates were prepared simultaneously and either handled completely under flavin-protecting conditions (illumination only by sodium discharge lamps with an emission wavelength of 589 nm [i]), or in the same bench (Thermo MSC 12) with the installed light inside their working chamber switched on. The dilution of docetaxel and those of riboflavin in the particular medium were prepared for all four plates of each medium type prior to the other working steps under flavin-protecting conditions. Thus the administrations of these dilutions took about 20 min either under flavin-protecting conditions or illuminated conditions. After completed preparation of the plates that thereafter contained 200 µL of both diluted compounds, the plates were incubated 2 h in the incubator to allow for adjustment of the appropriate pH.
In between the stock culture of KB was harvested by trypsination of a 3-days stock culture (exponential growth phase). Stock cultures of KB cells always were grown without any antibiotic or antimycotic in phenol red- and riboflavin-free RPMI 1640 supplemented with 10% (v/v) FCS and were adapted to this medium for more than five passages. They were always handled at room temperature or warmer and were never exposed to light other than the light of a sodium discharge lamp with an emission wavelength of 589 nm for at least five passages. […]

pIC50 (Homo sapiens, Epithelial cell, 0.5 h, Plate No. 07; Riboflavin 499 nmol/L; medium b) phenol red-free RPMI 1640, bench lighting <30 min, read-out: IC50 for docetaxel with reference to control with same riboflavin content): 9.77
pIC50 (Homo sapiens, Epithelial cell, 0.5 h, Plate No. 07; Riboflavin 508 nmol/L; medium b) phenol red-free RPMI 1640, bench lighting <30 min, read-out: IC50 for docetaxel with reference to control with same riboflavin content): 9.91
pIC50 (Homo sapiens, Epithelial cell, 0.5 h, Plate No. 07; Riboflavin 594 nmol/L; medium b) phenol red-free RPMI 1640, bench lighting <30 min, read-out: IC50 for docetaxel with reference to control with same riboflavin content): 9.76
pIC50 (Homo sapiens, Epithelial cell, 0.5 h, Plate No. 07; Riboflavin 1449 nmol/L; medium b) phenol red-free RPMI 1640, bench lighting <30 min, read-out: IC50 for docetaxel with reference to control with same riboflavin content): 9.89
pIC50 (Homo sapiens, Epithelial cell, 0.5 h, Plate No. 07; Riboflavin 10000 nmol/L; medium b) phenol red-free RPMI 1640, bench lighting <30 min, read-out: IC50 for docetaxel with reference to control with same riboflavin content): 9.87
pIC50 (Homo sapiens, Epithelial cell, 0.5 h, Plate No. 08; Riboflavin 499 nmol/L; medium b) phenol red-free RPMI 1640, bench lighting <30 min, daylight 30 min, read-out: IC50 for docetaxel with reference to control with same riboflavin content): 9.74
pIC50 (Homo sapiens, Epithelial cell, 0.5 h, Plate No. 08; Riboflavin 508 nmol/L; medium b) phenol red-free RPMI 1640, bench lighting <30 min, daylight 30 min, read-out: IC50 for docetaxel with reference to control with same riboflavin content): 9.73
pIC50 (Homo sapiens, Epithelial cell, 0.5 h, Plate No. 08; Riboflavin 594 nmol/L; medium b) phenol red-free RPMI 1640, bench lighting <30 min, daylight 30 min, read-out: IC50 for docetaxel with reference to control with same riboflavin content): 9.68
pIC50 (Homo sapiens, Epithelial cell, 0.5 h, Plate No. 10; Riboflavin 499 nmol/L; medium c) conventional RPMI 1640 with phenol red, daylight 30 min, read-out: IC50 for docetaxel with reference to control with same riboflavin content): 9.38
pIC50 (Homo sapiens, Epithelial cell, 0.5 h, Plate No. 10; Riboflavin 508 nmol/L; medium c) conventional RPMI 1640 with phenol red, daylight 30 min, read-out: IC50 for docetaxel with reference to control with same riboflavin content): 9.47
pIC50 (Homo sapiens, Epithelial cell, 0.5 h, Plate No. 10; Riboflavin 594 nmol/L; medium c) conventional RPMI 1640 with phenol red, daylight 30 min, read-out: IC50 for docetaxel with reference to control with same riboflavin content): 9.58
pIC50 (Homo sapiens, Epithelial cell, 0.5 h, Plate No. 10; Riboflavin 1449 nmol/L; medium c) conventional RPMI 1640 with phenol red, daylight 30 min, read-out: IC50 for docetaxel with reference to control with same riboflavin content): 9.87
pIC50 (Homo sapiens, Epithelial cell, 0.5 h, Plate No. 11; Riboflavin 499 nmol/L; medium c) conventional RPMI 1640 with phenol red, bench lighting <30 min, read-out: IC50 for docetaxel with reference to control with same riboflavin content): 9.65
SMILES: CC(=O)O[C@@]12CO[C@@H]1C[C@H](O)[C@@]1(C)C(=O)[C@H](O)C3=C(C)[C@@H](OC(=O)[C@H](O)[C@@H](NC(=O)OC(C)(C)C)c4ccccc4)C[C@@](O)([C@@H](OC(=O)c4ccccc4)[C@H]21)C3(C)C [docetaxel]
pIC50 (Homo sapiens, Epithelial cell, 0.5 h, Plate No. 06; Riboflavin 594 nmol/L; medium b), daylight 30 min, read-out: IC50 for docetaxel normalized to medium control of medium with same riboflavin content): 10.08
pIC50 (Homo sapiens, Epithelial cell, 0.5 h, Plate No. 07; Riboflavin 499 nmol/L; medium b), bench lighting <30 min, read-out: IC50 for docetaxel normalized to medium control of medium with same riboflavin content): 10.00
pIC50 (Homo sapiens, Epithelial cell, 0.5 h, Plate No. 07; Riboflavin 508 nmol/L; medium b), bench lighting <30 min, read-out: IC50 for docetaxel normalized to medium control of medium with same riboflavin content): 10.13
pIC50 (Homo sapiens, Epithelial cell, 0.5 h, Plate No. 07; Riboflavin 594 nmol/L; medium b), bench lighting <30 min, read-out: IC50 for docetaxel normalized to medium control of medium with same riboflavin content): 9.99
pIC50 (Homo sapiens, Epithelial cell, 0.5 h, Plate No. 07; Riboflavin 1449 nmol/L; medium b), bench lighting <30 min, read-out: IC50 for docetaxel normalized to medium control of medium with same riboflavin content): 10.12
pIC50 (Homo sapiens, Epithelial cell, 0.5 h, Plate No. 07; Riboflavin 10000 nmol/L; medium b), bench lighting <30 min, read-out: IC50 for docetaxel normalized to medium control of medium with same riboflavin content): 10.10
pIC50 (Homo sapiens, Epithelial cell, 0.5 h, Plate No. 08; Riboflavin 499 nmol/L; medium b), bench lighting <30 min, daylight 30 min, read-out: IC50 for docetaxel normalized to medium control of medium with same riboflavin content): 10.00
pIC50 (Homo sapiens, Epithelial cell, 0.5 h, Plate No. 08; Riboflavin 508 nmol/L; medium b), bench lighting <30 min, daylight 30 min, read-out: IC50 for docetaxel normalized to medium control of medium with same riboflavin content): 9.99
pIC50 (Homo sapiens, Epithelial cell, 0.5 h, Plate No. 08; Riboflavin 594 nmol/L; medium b), bench lighting <30 min, daylight 30 min, read-out: IC50 for docetaxel normalized to medium control of medium with same riboflavin content): 9.94
pIC50 (Homo sapiens, Epithelial cell, 0.5 h, Plate No. 10; Riboflavin 499 nmol/L; medium c), daylight 30 min, read-out: IC50 for docetaxel normalized to medium control of medium with same riboflavin content): 10.00
pIC50 (Homo sapiens, Epithelial cell, 0.5 h, Plate No. 10; Riboflavin 508 nmol/L; medium c), daylight 30 min, read-out: IC50 for docetaxel normalized to medium control of medium with same riboflavin content): 10.10
pIC50 (Homo sapiens, Epithelial cell, 0.5 h, Plate No. 10; Riboflavin 594 nmol/L; medium c), daylight 30 min, read-out: IC50 for docetaxel normalized to medium control of medium with same riboflavin content): 10.20
pIC50 (Homo sapiens, Epithelial cell, 0.5 h, Plate No. 10; Riboflavin 1449 nmol/L; medium c), daylight 30 min, read-out: IC50 for docetaxel normalized to medium control of medium with same riboflavin content): 10.49
